PMC6158578, “Optimization and Lead Selection of Benzothiazole Amide Analogs Toward a Novel Antimycobacterial Agent” (Frontiers in Microbiology, 2018)
≈ marks a conversion by molar mass, not a printed value. Where two headings read alike, the source gives them in different places.

How the values were obtained:
[1] = test system: S. aureus ATCC 29213; assay: MIC, spectrum of activity; assay type: cell-based; details: Staphylococcus aureus, ATCC29213; S. aureus ATCC 29213; read-out: MIC
[2] = Mouse oral PK and tolerability; assay type: in vivo, female CD-1 mice; details: oral 100 mg/kg
[3] = test system: E. coli ATCC 25922 + PMBN (permeabilized); assay: MIC, spectrum of activity; assay type: cell-based; details: Escherichia coli, ATCC25922
[4] = test system: M. abscessus 79; assay: MIC in MHB versus 7H9+OADC; assay type: cell-based
[5] = test system: CYP3A; assay: CYP inhibition in human liver microsomes; assay type: in vitro ADME
Procedure: (§1) ADMET assays were performed through NIAID Preclinical Services and Eurofins. Potential for cytotoxicity was monitored in HepG2 cells after 72 h growth in the presence of test compounds, either prepared as 10-point 3-fold serial dilutions or at a fixed 10 μM concentration. Cell viability was measured using the CellTiter-Glo® Luminescent Cell Viability Assay (Promega) or via fluorescent image analysis. Cytotoxicity was expressed as IC50 or as percent reduction of viable cells relative to a reference compound. Metabolic stability of compounds was evaluated via incubation with human liver microsomes at 37°C and quantitative analysis of parent compound by LC-MS/MS in samples removed at 0, 5, 15, 30, and 45 min (Obach, [1999]). For cytochrome P450 (CYP) inhibition assays, compounds were prepared as a 7-point dilution series and incubated with human liver microsomes in buffer containing 2 mM NADPH and probe substrate. […] Thermodynamic solubility of compounds in aqueous media was determined by incubation in 50 mM potassium phosphate buffer (pH 7.4) for 24 h, followed by HPLC-UV detection of compound in the filtrate (Analiza, Cleveland, OH, United States).

[6] = test system: Intracellular Mtb; assay: microbe, parasite or virus in culture; assay type: cell-based, M. tuberculosis; details: Mycobacterium tuberculosis
[7] = 50% complement-inactivated human serum
[8] = test system: M. chelonae 93; assay: MIC, broth microdilution with resazurin (MHB, 3 days); assay type: cell-based; details: Mycobacteroides chelonae; M. chelonae 93; read-out: MIC
[9] = test system: Mtb; assay: microbe, parasite or virus in culture; assay type: cell-based, M. tuberculosis; details: Mycobacterium tuberculosis
[10] = test system: Anaerobes (n > 20 strains); assay: organism not typed; assay type: cell-based
[11] = test system: E. faecalis ATCC 29212; assay: MIC, spectrum of activity; assay type: cell-based; details: Enterococcus faecalis, ATCC29212; E. faecalis ATCC 29212; read-out: MIC
[12] = test system: M. abscessus 21; assay: MIC in MHB versus 7H9+OADC; assay type: cell-based
[13] = test system: M. abscessus massiliense 119; assay: MIC, broth microdilution with resazurin (MHB, 3 days); assay type: cell-based; details: Mycobacteroides abscessus; M. abscessus massiliense 119; read-out: MIC
[14] = test system: S. pneumoniae ATCC 49619; assay: MIC, spectrum of activity; assay type: cell-based; details: Streptococcus pneumoniae, ATCC49619; S. pneumoniae ATCC 49619; read-out: MIC
[15] = test system: Mtb H37Rv; assay type: cell-based, M. tuberculosis
[16] = test system: M. fortuitum 41; assay: MIC, broth microdilution with resazurin (MHB, 3 days); assay type: cell-based; details: Mycolicibacterium fortuitum; M. fortuitum 41; read-out: MIC
[17] = test system: equine erythrocytes; assay: Hemolysis assay; details: up to 128 μg/mL, 10 min, room temperature
[18] = test system: S. pyogenes ATCC 19615; assay: MIC, spectrum of activity; assay type: cell-based; details: Streptococcus pyogenes, ATCC19615; S. pyogenes ATCC 19615; read-out: MIC
[19] = HepG2 cytotoxicity, 72 h; assay type: cell-based; details: human, HepG2 cells, HepG2, 72 h, read-out: HepG2 cytotox., IC50
Procedure: as §1

[20] = test system: M. abscessus ATCC 19977; assay: MIC, broth microdilution with resazurin (MHB, 3 days); assay type: cell-based; details: Mycobacteroides abscessus, ATCC19977; M. abscessus ATCC 19977; read-out: MIC
[21] = test system: Mabs 21
[22] = test system: Other NTM (n = 12); assay: MIC against rapid-growing NTM clinical isolates; assay type: cell-based; details: Other NTM (n = 12)
[23] = test system: E. coli tolC CGSC 5633 (efflux mutant strain); assay: microbe, parasite or virus in culture; assay type: cell-based; details: Escherichia coli
[24] = test system: M. abscessus (n = 20) clinical isolates; assay: MIC against rapid-growing NTM clinical isolates; assay type: cell-based; details: M. abscessus (n = 20)
[25] = physchem; assay type: physicochemical; details: pH 7.4, aqueous buffer, thermodynamic from solid
Procedure: as §1

[26] = test system: M. tuberculosis H37Rv mc^2 6206; assay: microbe, parasite or virus in culture; assay type: cell-based; details: Mycobacterium tuberculosis, 168 h

## CC12CC3CC(C)(C1)CC(C(=O)Nc1nc4ccc(OC(F)(F)F)cc4s1)(C3)C2 [CRS400226]
[1]
  MIC: > 64 µg/mL
[2]; mouse, plasma, female CD-1 mice, 1 h, read-out: plasma level
  concentration at 1 h: 2300 ng/mL
[2]; mouse, plasma, female CD-1 mice, 8 h, read-out: plasma level
  concentration at 8 h: 2000 ng/mL
[2]; mice
  tolerability of oral dosing: highly tolerated
[3]
  MIC: > 64 µg/mL
[4]; M. abscessus 79, 7H9 + OADC (5 mg/mL albumin)
  MIC: 2 µg/mL
[4]; M. abscessus 79, MHB
  MIC: 0.25 µg/mL (≈ 0.589 µM)
[5]
  inhibition at 10 µM: < 50%
[6]
  IC90: 0.8 µg/mL (≈ 1.88 µM)
[7]
  Protein (serum) binding: >95%
[8]
  MIC: 0.5 µg/mL (≈ 1.18 µM)
[9]
  MBC: 10.6 µg/mL (≈ 25 µM)
[10]
  MIC: > 16 µg/mL
[11]
  MIC: > 64 µg/mL
[12]; M. abscessus 21, 7H9 + OADC (5 mg/mL albumin)
  MIC: 8 µg/mL
[12]; M. abscessus 21, MHB
  MIC: 0.25 µg/mL (≈ 0.589 µM)
[13]
  MIC: 0.25 µg/mL (≈ 0.589 µM)
[14]
  MIC: 64 µg/mL (≈ 151 µM)
[15]
  reduction in Mtb in time-kill assay: 3 Log10 CFU
  time-kill kinetics, result in words: bactericidal activity
[16]
  MIC: 0.12 µg/mL (≈ 0.283 µM)
[17]
  Hemolysis: 128 µg/mL
[18]
  MIC: > 64 µg/mL
[19]
  IC50 at 72 h: 69 µM
[19]; value in brackets
  IC50 at 72 h: 29 µg/mL
[20]
  MIC: 0.25 µg/mL (≈ 0.589 µM)
[21]; after 4 weeks of treatment
  lung histology: only very mild areas of airway-centric inflammation
[21]; intratracheal 25 mg/kg once daily, 5 days per week, 4 weeks, 5% corn oil/saline emulsion
  reduction of lung CFU compared to the vehicle control: 0.64 Log10 CFU
[21]; up to 4 weeks of treatment, intratracheal 25 mg/kg
  tolerability: well tolerated
[22]
  MIC range: 0.12 to 1 µg/mL
[22]; read-out: MIC90
  MIC90: 0.5 µg/mL (≈ 1.18 µM)
[23]
  MIC: > 64 µg/mL
[24]
  MIC range: 0.25 to 2 µg/mL
[24]; Mycobacteroides abscessus, read-out: MIC90
  MIC90: 0.5 µg/mL (≈ 1.18 µM)
[25]
  solubility at 24 h: < 3 µM
[26]
  MIC: 0.5 µg/mL (≈ 1.18 µM)
